Eleven compounds from ChEMBL document CHEMBL1201862, “PubChem BioAssay data set” (2004) can be followed below.

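Test compounds were applied to cells in 96-well plates for 48 hours at 5 doses. The concentration for 50% growth inhibition is given as GI50.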 Calls of active or inactive are those of the source. Cut-off read from the data, not from the text of the source: active = GI50 up to about 1.1 µM and inactive = higher.

Among the test systems are 786-0; HOP-18; DMS-114; EKVX; SK-OV-3; OVCAR-5; K562; A549; DLD-1; SW-620; SF-268; CCRF-CEM; IGROV-1; HL-60; NCI-H23; NCI-H522; DMS-273; UACC-257; OVCAR-3; UACC-62.
Common to all, as to assay: inhibition of tumour cell growth, NCI panel, 48 h

As for `Cc1cccc(C)c1NC(=O)CCCC(=O)C(C#N)c1ccc(Cl)cc1` (stereo not given), the GI50 in the test with 786-0, in the test on HOP-18, in the test with DMS-114, in the test on EKVX, with SK-OV-3 and in the test with OVCAR-5 was > 100 µM (inactive) in each case. The GI50 in the test with K562, in the test with A549, in the test on DLD-1, in the test with SW-620, with SF-268 and with CCRF-CEM was > 100 µM (inactive) throughout. Further, the GI50 with IGROV-1, in the test with HL-60, in the test on NCI-H23, in the test on NCI-H522, with DMS-273 and with UACC-257 was > 100 µM (inactive) throughout. Moreover, the GI50 in the test on OVCAR-3 and in the test with UACC-62 was > 100 µM (inactive) throughout.
As to `COC(=O)C(=O)C(C(=O)C(=O)Nc1ccc([N+](=O)[O-])cc1)c1nc2ccccc2nc1O` (stereo not given), the GI50 with 786-0 was > 100 µM (inactive); with HOP-18 it was > 100 µM (inactive); in the test on DMS-114, > 100 µM (inactive); in the test on SK-OV-3 it was > 100 µM (inactive); in the test on K562, 39.1 µM (inactive); with A549, > 100 µM (inactive). Further, the GI50 in the test with DLD-1, in the test with SW-620, with SF-268, in the test with CCRF-CEM, in the test on IGROV-1 and with HL-60 was > 100 µM (inactive) throughout. Moreover, the GI50 in the test with NCI-H23 is > 100 µM (inactive); with NCI-H522 it was > 100 µM (inactive); with DMS-273, 47.1 µM (inactive); in the test with UACC-257, 55.7 µM (inactive); with OVCAR-3, > 100 µM (inactive); in the test on UACC-62 it was 19.6 µM (inactive).
For the compound `Cc1ccc(NC(=O)CC(=O)n2nc(-c3ccccc3)c(/N=N/c3ccc(Cl)cc3)c2-c2ccccc2)cc1`, the GI50 is 21.1 µM (inactive) in the test on 786-0; 39 µM (inactive) in the test with HOP-18; 39.6 µM (inactive) in the test with DMS-114; > 100 µM (inactive) with EKVX; 27.5 µM (inactive) with SK-OV-3; > 100 µM (inactive) in the test with OVCAR-5. Also, the GI50 was 13.5 µM (inactive) in the test on K562; 28.2 µM (inactive) with A549; 15.3 µM (inactive) in the test with DLD-1; 15.2 µM (inactive) in the test with SW-620; > 100 µM (inactive) in the test on SF-268; 24.4 µM (inactive) in the test on CCRF-CEM. The GI50 in the test with IGROV-1 is 57.7 µM (inactive); in the test on HL-60 it was 0.221 µM (active); in the test with NCI-H23 it was 58.1 µM (inactive); with DMS-273 it was 83.8 µM (inactive); in the test on UACC-257, 33.8 µM (inactive); with OVCAR-3 it was 42.6 µM (inactive). The GI50 with UACC-62 is > 100 µM (inactive).
In the case of `O=C(Nc1cccc(Cl)c1)c1cc2cc(/N=N/c3ccc(Br)cc3)ccc2oc1=O`, the GI50 in the test with 786-0 is 25.5 µM (inactive); with HOP-18, 63.2 µM (inactive); in the test on DMS-114, 18.4 µM (inactive); in the test with EKVX, 34.3 µM (inactive); with SK-OV-3 it was 51.2 µM (inactive); with OVCAR-5, 31 µM (inactive). Also, the GI50 with K562 was 6.19 µM (inactive); in the test on A549, 90.6 µM (inactive); in the test on DLD-1, 40 µM (inactive); in the test with SW-620, 29.3 µM (inactive); in the test on SF-268, 14.6 µM (inactive); in the test on IGROV-1 it was 51.5 µM (inactive). The GI50 was 22.6 µM (inactive) in the test on NCI-H23; 49.4 µM (inactive) with NCI-H522; 21.3 µM (inactive) with DMS-273; 33.3 µM (inactive) with UACC-257; 22.8 µM (inactive) with OVCAR-3; 14.1 µM (inactive) with UACC-62.
For `CN1CCN(CCn2c3c4ccccc4ccc3c3oc(=O)c4ccccc4c32)CC1`, the GI50 was 1.73 µM (inactive) in the test on 786-0; 12.6 µM (inactive) in the test with HOP-18; 1.95 µM (inactive) with DMS-114; 12.7 µM (inactive) with EKVX; 12.7 µM (inactive) with SK-OV-3; 5.74 µM (inactive) with OVCAR-5. Besides, the GI50 in the test with K562 was 1.44 µM (inactive); in the test on A549 it was 3.97 µM (inactive); with DLD-1 it was 2.28 µM (inactive); in the test on SW-620 it was 1.86 µM (inactive); in the test with SF-268, 6 µM (inactive); in the test on CCRF-CEM, 1.56 µM (inactive). Further, the GI50 with IGROV-1 is 13.2 µM (inactive); in the test with HL-60 it was 2.15 µM (inactive); in the test with NCI-H23, 5.83 µM (inactive); with NCI-H522, 4.55 µM (inactive); in the test with UACC-257, 1.56 µM (inactive); with OVCAR-3, 10.6 µM (inactive). The GI50 in the test on UACC-62 was 3.56 µM (inactive).
Turning to `C#C[C@]1(O)CCCC2=CC(=O)CC[C@@]21C`, the GI50 in the test on 786-0, in the test with HOP-18, in the test on DMS-114, in the test on EKVX, with SK-OV-3 and with OVCAR-5 was > 100 µM (inactive) in each case. The GI50 in the test on K562, with A549, with DLD-1, with SW-620, with SF-268 and in the test with CCRF-CEM was > 100 µM (inactive) in each case. Also, the GI50 with IGROV-1, in the test on HL-60, in the test with NCI-H23, with NCI-H522, with DMS-273 and in the test on UACC-257 was > 100 µM (inactive) in each case. For the same compound, the GI50 with OVCAR-3 is > 100 µM (inactive).
On to `Cn1cnc([N+](=O)[O-])c1Sc1nnnn1-c1ccccc1`, for which the GI50 is 16.7 µM (inactive) in the test on 786-0; 1.58 µM (inactive) in the test on HOP-18; 15.5 µM (inactive) in the test with DMS-114; 16 µM (inactive) with EKVX; 46.9 µM (inactive) in the test on SK-OV-3; 17.8 µM (inactive) in the test on OVCAR-5. The GI50 with K562 is 3.94 µM (inactive); in the test on A549 it was 23.9 µM (inactive); in the test on DLD-1, 6.68 µM (inactive); with SW-620, 7.05 µM (inactive); in the test with SF-268 it was 19.5 µM (inactive); in the test with CCRF-CEM, 2.39 µM (inactive). Besides, the GI50 in the test on IGROV-1 is 16.2 µM (inactive); in the test on NCI-H23, 19.4 µM (inactive); in the test on NCI-H522 it was 2.34 µM (inactive); in the test on DMS-273, 15 µM (inactive); with UACC-257, 13.7 µM (inactive); with OVCAR-3, 13.6 µM (inactive). The GI50 with UACC-62 is 13.9 µM (inactive).
As to `CCOC(=O)/C(=C/c1ccccc1Br)P(=O)(OCC)OCC`, the GI50 in the test on 786-0 is 1.34 µM (inactive); with HOP-18 it was 3.34 µM (inactive); in the test on EKVX, 2.58 µM (inactive); in the test on OVCAR-5, 2.53 µM (inactive); in the test with K562, 0.298 µM (active); with A549 it was 2.67 µM (inactive). For the same compound, the GI50 in the test on DLD-1 is 1.29 µM (inactive); in the test on SW-620 it was 1.28 µM (inactive); in the test with SF-268 it was 2.9 µM (inactive); in the test on CCRF-CEM it was 0.738 µM (active); with IGROV-1, 3.28 µM (inactive); with HL-60, 0.226 µM (active). Also, the GI50 with NCI-H23 was 1.73 µM (inactive); with NCI-H522, 0.927 µM (active); in the test on DMS-273, 1.26 µM (inactive); with OVCAR-3, 2.81 µM (inactive); in the test with UACC-62, 1.24 µM (inactive).
Consider `Cn1c(=O)c2c3ccccc3c(C(=O)c3ccccc3)n2c2ccccc21`, for which the GI50 with 786-0 is 10.3 µM (inactive); with HOP-18, 18.7 µM (inactive); in the test on DMS-114, 3.67 µM (inactive); in the test with EKVX, > 89.3 µM (inactive); with OVCAR-5, 17.3 µM (inactive); in the test on K562, 4.08 µM (inactive). Also, the GI50 was 56.8 µM (inactive) in the test on A549; 8.24 µM (inactive) in the test with DLD-1; 5.78 µM (inactive) in the test with SW-620; 20 µM (inactive) in the test on SF-268; 9.82 µM (inactive) with CCRF-CEM; > 100 µM (inactive) in the test on IGROV-1. Besides, the GI50 was 4.65 µM (inactive) in the test on HL-60; 23.3 µM (inactive) in the test with NCI-H23; 3.33 µM (inactive) in the test with NCI-H522; 3.27 µM (inactive) with DMS-273; > 100 µM (inactive) with UACC-257; 2.94 µM (inactive) in the test with OVCAR-3. Further, the GI50 in the test with UACC-62 was 4.02 µM (inactive).
Regarding `OC1CN(OC/C=C/c2ccccc2)CC(O)C1O` (stereo not given), the GI50 was 21.1 µM (inactive) in the test with 786-0; > 100 µM (inactive) in the test with HOP-18; > 100 µM (inactive) with DMS-114; > 100 µM (inactive) in the test on EKVX; > 100 µM (inactive) in the test with SK-OV-3; > 100 µM (inactive) with OVCAR-5. Besides, the GI50 in the test on K562 is > 100 µM (inactive); in the test on A549, > 100 µM (inactive); in the test with DLD-1 it was 87.3 µM (inactive); in the test on SW-620, 36.1 µM (inactive); with SF-268, > 100 µM (inactive); in the test on CCRF-CEM it was > 100 µM (inactive). The GI50 in the test on IGROV-1, with HL-60, with NCI-H23, in the test on DMS-273, in the test on UACC-257 and with OVCAR-3 was > 100 µM (inactive) each time. The GI50 in the test on UACC-62 was > 100 µM (inactive).
In the case of `NC(CCSCCF)C(=O)O` (stereo not given), the GI50 in the test on 786-0, with HOP-18, with DMS-114, with EKVX, in the test on SK-OV-3 and in the test with OVCAR-5 was > 100 µM (inactive) each time. In addition, the GI50 with K562, in the test with A549, in the test on SW-620, in the test on SF-268, with CCRF-CEM and with IGROV-1 was > 100 µM (inactive) in each case. In addition, the GI50 in the test on HL-60, in the test on NCI-H23, with NCI-H522, in the test with DMS-273, in the test with OVCAR-3 and with UACC-62 was > 100 µM (inactive) throughout.
